Columns and labels:
3×TG+/− mice = assay: Learning and memory tests (Morris water maze, novel object recognition) in 3×TG+/− mice; assay type: in vivo, mouse; conditions: 12-15 months old 3×TG+/− mice, 3.2 mg/kg/day for one month; vs DMSO
Protocol: Genetically engineered mice of 12-15 months old, 3×TG+/− (Oddo et al., 2003), RyR2-E4872Q+/− (EQ+/−)(Chen et al., 2014), 3×TG+/−/RyR2-E48720+/− (3×TG+/−/EQ+/−), and WT littermates of both sexes were used. Sex differences, which may produce biological variables, were not investigated in this study. R-carvedilol (R-CV) (3.2 mg/kg/day) and vehicle control (DMSO) were delivered to 3×TG+/− mice in drinking water for one month. As shown previously, only heterozygous RyR2-E4872Q+/− mutant mice were produced as homozygous E4872Q+/+mutation is embryonic lethal (Chen et al., 2014). Functional RyR2s are tetrameric channels formed by 4 RyR2 monomers. The heterozygous E4872Q+/− mutant mice (harboring one WT allele and one E4872Q mutant allele) will produce a mixture of homo- and hetero-tetrameric channels that contain the WT, E48720 mutant, or both WT/E4872Q mutant monomers. Thus, the RyR2-E4872Q mutation can exert its negative impact not only on the function of the E4872Q homo-tetramers, but also on the function of the WT monomer in the WT/E4872Q hetero-tetrameric channels.
The learning and memory of mice with all genotypes were evaluated using the Morris water maze (MWM) test, the Barnes maze (BM) test, and/or the novel object recognition (NOR) test. Experiments were carried out blindly. For the MWM test, mice at different ages were trained to localize a hidden escape platform (10×10 cm) in a circular pool (116.84 cm in diameter, 50 cm in depth) (San Diego Instruments, CA) via distal visual cue. The platform was submerged 1-2 cm beneath the surface in water (22-24°C.), which was rendered opaque by addition of milk powder. The localization of the pool in relation to visual cues was maintained constantly during the entire task. The cues were distinct in color and shape. Digital division of the tracking area (pool) into four quadrants was performed by the SMART video tracking system, Smart 3.0 (Panlab Harvard Apparatus; Barcelona Spain). The escape platform was placed in the centre of the south-west quadrant for the entirety of the learning phase (4 training days) and digitally defined as target. Spatial training consisted of 4 days with 5 trials per mouse per day. Mice were released with their heads facing the pool wall at one of four entry locations (north, east, south and west) in a non-repetitive random order. Swimming was automatically video-tracked until the subject found the escape platform and remained on it (≥5 sec), or until a maximum of 60 seconds. […] In between trials (inter-trial interval ≥10 min), mice were housed in heated cages to avoid performance deficits due to exhaustion or hypothermia. The latency and swimming speed to reach the escape platform were recorded for comparison. After the learning phase, memory retention was evaluated by one probe trial 24 hours after the last training session. The escape platform was removed before mice were released from the north entry point into the pool. Their swimming was video-tracked for 60 seconds. […] The percentage of time mice spent in the target quadrant (including the target) were measured for comparison.
For the NOR test, mice were habituated for 10 min per mouse in an equally illuminated, odor-free, white, plastic box (40×40×50 cm^3) embedded with fresh aspen shavings and shreds. […] Mice were video recorded during this familiarizing phase. Side preferences was evaluated by dividing the time a mouse spent exploring one object by the time they spent at the other object. […]

RyR2 = conditions: cardiac cells; cited from earlier work
[1] = tested on: hippocampal CA3-CA1 pathway of 5×FAD+/− mice; assay: Long-term potentiation / fEPSP recording in hippocampal slices from treated 5×FAD+/− mice; assay type: in vivo, mouse; conditions: vs DMSO
Protocol: Adult genetically engineered mice, 5×FAD^+/− (Oakley et al., 2006), RyR2-E4872Q^+/− (EQ^+/−) (Chen et al., 2014), 5×FAD^+/−/RyR2-E4872Q^+/− (5×FAD^+/−/EQ^+/−), and wildtype (WT) littermates of both sexes were used. R-carvedilol (R-CV) (at doses of 0.8, 1.6 or 3.2 mg/kg/day), racemic carvedilol (3.2 mg/kg/day), and vehicle control (DMSO) were delivered to 5×FAD^+/− mice in drinking water for one month, starting at different ages before (2-3 months old) or after (3-4 months old) the occurrence of AD pathologies (Oakley et al., 2006). To assess the effects of genetically and pharmacologically limiting RyR2 open time on the prevention and rescue of AD deficits in different stages (early, moderate, and late) of AD progression, animals at different ages (from 2-15 months) were used. […] For 2-photon Ca^2+ imaging experiments, 5×FAD, RyR2 WT, and RyR2 mutant mice were cross-bred with the heterozygous Thy1-GCaMP6f transgenic mice (Chen et al., 2012; Chen et al., 2013) (GP5.17, JAX 025393) to express the GCaMP6f Ca^2+ sensing probe (driven by the Thy1 promotor) in hippocampal neurons in each of the genotypes used.
Schaffer collateral fibers were stimulated at the CA3 subfield to record field excitatory postsynaptic potentials (fEPSPs) in the CA1 stratum radiatum of transverse hippocampal slices ([…]) from all genotypes and drug-treated mice at different ages. After recovering at room temperature for 1 h (or 2 h for brain slices from drug-treated mice), hippocampal slices were allowed to recover in the recording chamber for additional 10 min. To evaluate basal synaptic transmission, different stimulation strengths (0 μA to 200 μA in steps of 20 μA) were applied and plotted fEPSP slopes versus the current input to compare the slope of input/output (I/O) curves of fEPSP. In the experiments that followed, stimulus current was adjusted so that fEPSP stabilized at 40-50% of maximum. Baseline was recorded for at least […] until the differences among fEPSP slopes were within 10%. Long-term potentiation (LTP) was induced using a tetanic high-frequency stimulation (HFS; 4 trains of 100 pulses at 100 Hz, with 20-sec intervals). Synaptic responses were recorded for at least 60 min after tetanization and quantified as the slope of the evoked fEPSP as percentage of the baseline.

COc1ccccc1OCCNC[C@@H](O)COc1cccc2[nH]c3ccccc3c12 [R-carvedilol, R-(+)-carvedilol]
discrimination index in the NOR test (3×TG+/− mice): increased | latency to the target platform in the MWM test (3×TG+/− mice): significantly shortened | swimming speed in the MWM test (3×TG+/− mice): increased | time spent in the target zone in the MWM test (3×TG+/− mice): increased | walking velocity in the NOR test (3×TG+/− mice): increased | RyR2 open time (RyR2): shortened | LTP impairment ([1]; 3.2 mg/kg/day for one month started at 2-3 months of age (before AD symptoms), slices at 3-4 months): prevented | LTP impairment ([1]; 3.2 mg/kg/day for one month started at 3-4 months of age (after AD symptom), slices at 4-5 months): rescued | reduced basal synaptic transmission (fEPSP slope vs stimulus intensity) ([1]; 5×FAD+/− hippocampal brain slices, 3-4, 4-5 and 6-7 months old treated mice): restored | LTP deficit ([1]; 6-7 months old 5×FAD+/− mice after 1-month treatment with 3.2 mg/kg/day): rescues

— US20230381139A1, “METHODS OF TREATING AND/OR PREVENTING ALZHEIMER’S DISEASE WITH R-CARVEDILOL” (priority 2020, published 2023)
